≈ marks a conversion by molar mass, not a printed value.
Tested on: Clostridium difficile (Isolate ID ATCC 9689)
Assay: Bacterial Assay: Determination of Antibacterial Activity (MIC, broth microdilution or agar dilution)
Format: cell-based
Conditions: Clostridioides difficile, ATCC9689, 48 h, read-out: C. difficile MIC Activity Range
In short: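 MICs were set by CLSI broth microdilution or agar dilution for anaerobes, read visually after 48 hours at 37° C. under anaerobic gas packs. Medium was reinforced clostridial medium with 0.1% defibrinated horse blood; values are binned as A ≦1.01, B >1.0-4.0, C >4.0-16 μg/mL.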

`Cn1cc(CNC(=O)OCC(Oc2ccc(F)c(C(N)=O)c2F)c2nc(-c3ccc(C(F)(F)F)cc3)c(Br)o2)cn1` (stereo not drawn) [Compound 76, 2-{5-bromo-4-[4-(trifluoromethyl)phenyl]-1,3-oxazol-2-yl}-2-(3-carbamoyl-2,4-difluorophenoxy)ethyl [(1-methyl-1H-pyrazol-4-yl)methyl]carbamate] and `NC(=O)c1c(F)ccc(OC(COC(=O)NCc2cccnc2)c2nc(-c3ccc(C(F)(F)F)cc3)c(Br)o2)c1F` (stereo not drawn) [Compound 62, 2-{5-bromo-4-[4-(trifluoromethyl)phenyl]-1,3-oxazol-2-yl}-2-(3-carbamoyl-2,4-difluorophenoxy)ethyl (pyridin-3-ylmethyl)carbamate] cannot be ordered by MIC: less than 1.01 µg/mL for the first, 1 to 4 µg/mL (≈ 1.56 to 6.24 µM) for the second.

Compared with `NC(=O)c1c(F)ccc(OCc2nc(-c3ccc(Cl)nc3)cs2)c1F` [Compound 201, 3-{[4-(6-chloropyridin-3-yl)-1,3-thiazol-2-yl]methoxy}-2,6-difluorobenzamide], `COc1cc(-c2csc(COc3ccc(F)c(C(N)=O)c3F)n2)ccc1Cl` [Compound 195, 3-{[4-(4-chloro-3-methoxyphenyl)-1,3-thiazol-2-yl]methoxy}-2,6-difluorobenzamide] is higher in MIC: 1 to 4 µg/mL (≈ 2.62 to 10.5 µM) for the first, 4 to 16 µg/mL (≈ 9.74 to 38.9 µM) for the second.

First: NC(=O)c1c(F)ccc(OCCCCOc2ccccc2)c1F [Compound 151, 2,6-difluoro-3-(4-phenoxybutoxy)benzamide]
Second: NC(=O)c1c(F)ccc(OCCCCOc2ccccc2Cl)c1F [Compound 139, 3-[4-(2-chlorophenoxy)butoxy]-2,6-difluorobenzamide]
The MIC of the first is lower: 1 to 4 µg/mL (≈ 3.11 to 12.4 µM) for the first, 4 to 16 µg/mL (≈ 11.2 to 45 µM) for the second.

`NC(=O)c1c(F)ccc(OCCc2nc(-c3ccc(OC(F)(F)F)cc3)no2)c1F` [Compound 117, 2,6-difluoro-3-(2-{3-[4-(trifluoromethoxy)phenyl]-1,2,4-oxadiazol-5-yl}ethoxy)benzamide] and `NC(=O)c1c(F)ccc(OCCCCNc2ccc(OC(F)(F)F)cc2)c1F` [Compound 148, 2,6-difluoro-3-(4-{[4-(trifluoromethoxy)phenyl]amino}butoxy) benzamide] cannot be ordered by MIC: less than 1.01 µg/mL for the first, less than 1.01 µg/mL for the second.

Compared with `COc1ccc(-c2nc(COc3ccc(F)c(C(N)=O)c3F)sc2-c2cccc(Cl)c2O)cc1` [Compound 191, 3-{[5-(3-chloro-2-hydroxyphenyl)-4-(4-methoxyphenyl)-1,3-thiazol-2-yl]methoxy}-2,6-difluorobenzamide], `NC(=O)c1c(F)ccc(OCc2cc(-c3ccc(Cl)cc3)cs2)c1F` [Compound 188, 3-{[4-(4-chlorophenyl)thiophen-2-yl]methoxy}-2,6-difluorobenzamide] is lower in MIC: 4 to 16 µg/mL (≈ 7.95 to 31.8 µM) for the first, less than 1.01 µg/mL for the second.

`NC(=O)c1c(F)ccc(N(CCO)CCCCOc2ccc(OC(F)(F)F)cc2)c1F` [Compound 181, 2,6-difluoro-3-[(2-hydroxyethyl){4-[4-(trifluoromethoxy)phenoxy]butyl}amino] benzamide] and `NC(=O)c1c(F)ccc(OCCCCOc2ccc(OC(F)F)cc2)c1F` [Compound 149] cannot be ordered by MIC: 1 to 4 µg/mL (≈ 2.23 to 8.92 µM) for the first, less than 1.01 µg/mL for the second.

`NC(=O)c1c(F)ccc(OC(CNC(=O)c2ccccn2)c2nc(-c3ccc(C(F)(F)F)cc3)c(Br)o2)c1F` (racemic) [Compound 98, N-[2-{5-bromo-4-[4-(trifluoromethyl)phenyl]-1,3-oxazol-2-yl}-2-(3-carbamoyl-2,4-difluorophenoxy)ethyl]pyridine-2-carboxamide] and `NC(=O)c1c(F)ccc(OC(CNC(=O)c2ccccc2)c2nc(-c3ccc(C(F)(F)F)cc3)c(Br)o2)c1F` (racemic) [Compound 96, 3-[2-(benzoylamino)-1-{5-bromo-4-[4-(trifluoromethyl)phenyl]-1,3-oxazol-2-yl}ethoxy]-2,6-difluorobenzamide] cannot be ordered by MIC: 1 to 4 µg/mL (≈ 1.64 to 6.54 µM) for the first, less than 1.01 µg/mL for the second.

`NC(=O)c1c(F)ccc(OCCCCSc2ccc(Cl)cc2)c1F` [Compound 153, 3-{4-[(4-chlorophenyl)thio]butoxy}-2,6-difluorobenzamide] and `NC(=O)c1c(F)ccc(OCCCCOc2ccc(F)cc2)c1F` [Compound 168, 2,6-difluoro-3-[4-(4-fluorophenoxy)butoxy] benzamide] cannot be ordered by MIC: less than 1.01 µg/mL for the first, 1 to 4 µg/mL (≈ 2.95 to 11.8 µM) for the second.

`Cc1cc(CNC(=O)OCC(Oc2ccc(F)c(C(N)=O)c2F)c2nc(-c3ccc(C(F)(F)F)cc3)c(Br)o2)n(C)n1` (stereo not drawn) [Compound 87, 2-{5-bromo-4-[4-(trifluoromethyl)phenyl]-1,3-oxazol-2-yl}-2-(3-carbamoyl-2,4-difluorophenoxy)ethyl [(1,3-dimethyl-1H-pyrazol-5-yl)methyl]carbamate] and `CN(C)CC(=O)OCC(Oc1ccc(F)c(C(N)=O)c1F)c1nc(-c2ccc(C(F)(F)F)cc2)c(Br)o1` (stereo not drawn) [Compound 36, 2-{5-bromo-4-[4-(trifluoromethyl)phenyl]-1,3-oxazol-2-yl}-2-(3-carbamoyl-2,4-difluorophenoxy)ethyl N,N-dimethylglycinate] cannot be ordered by MIC: 1 to 4 µg/mL (≈ 1.52 to 6.08 µM) for the first, less than 1.01 µg/mL for the second.

First: N#Cc1cccc(OCCCCOc2ccc(F)c(C(N)=O)c2F)c1 [Compound 173, 3-[4-(3-cyanophenoxy)butoxy]-2,6-difluorobenzamide]
Second: NC(=O)c1c(F)ccc(OCCCc2nc(-c3ccc(OC(F)F)cc3)cs2)c1F [Compound 114, 3-(3-{4-[4-(difluoromethoxy)phenyl]-1,3-thiazol-2-yl}propoxy)-2,6-difluorobenzamide]
The MIC of the first is higher: 4 to 16 µg/mL (≈ 11.5 to 46.2 µM) for the first, 1 to 4 µg/mL (≈ 2.27 to 9.08 µM) for the second.

`NC(=O)c1c(F)ccc(OCCCc2nc(-c3ccc(S(F)(F)(F)(F)F)cc3)cs2)c1F` [Compound 116, 2,6-difluoro-3-(3-{4-[4-(pentafluoro-lambda~6~- sulfanyl)phenyl]-1,3-thiazol-2-yl}propoxy)benzamide] and `CCC(Oc1ccc(F)c(C(N)=O)c1F)c1nc(-c2ccc(Cl)cc2)c(Br)o1` (stereo not drawn) [Compound 27, 3-{1-[5-bromo-4-(4-chlorophenyl)-1,3-oxazol-2-yl]propoxy}-2,6-difluorobenzamide] fall in the same range of MIC: 1 to 4 µg/mL (≈ 2 to 7.99 µM) for the first, 1 to 4 µg/mL (≈ 2.12 to 8.48 µM) for the second.

Compared with `NC(=O)c1c(F)ccc(OC(COC(=O)N2CCOCC2)c2nc(-c3ccc(C(F)(F)F)cc3)c(Br)o2)c1F` (stereo not drawn) [Compound 58, 2-{5-bromo-4-[4-(trifluoromethyl)phenyl]-1,3-oxazol-2-yl}-2-(3-carbamoyl-2,4-difluorophenoxy)ethyl morpholine-4-carboxylate], `NC(=O)c1c(F)ccc(OC(COC(=O)Nc2ccncc2)c2nc(-c3ccc(C(F)(F)F)cc3)c(Br)o2)c1F` (stereo not drawn) [Compound 67, 2-{5-bromo-4-[4-(trifluoromethyl)phenyl]-1,3-oxazol-2-yl}-2-(3-carbamoyl-2,4-difluorophenoxy)ethyl pyridin-4-ylcarbamate] is lower in MIC: 4 to 16 µg/mL (≈ 6.45 to 25.8 µM) for the first, 1 to 4 µg/mL (≈ 1.59 to 6.38 µM) for the second.

`CC(Nc1ccc(F)c(C(N)=O)c1F)c1nc(-c2ccc(OC(F)(F)F)cc2)c(Br)o1` (stereo not drawn) [Compound 212, 3-[(1-{5-bromo-4-[4-(trifluoromethoxy)phenyl]-1,3-oxazol-2-yl}ethyl)amino]-2,6-difluorobenzamide] and `NC(=O)c1c(F)ccc(OC(CNC(=O)c2cccnc2)c2nc(-c3ccc(C(F)(F)F)cc3)c(Br)o2)c1F` (racemic) [Compound 97, N-[2-{5-bromo-4-[4-(trifluoromethyl)phenyl]-1,3-oxazol-2-yl}-2-(3-carbamoyl-2,4-difluorophenoxy)ethyl]pyridine-3-carboxamide] fall in the same range of MIC: 1 to 4 µg/mL (≈ 1.98 to 7.9 µM) for the first, 1 to 4 µg/mL (≈ 1.64 to 6.54 µM) for the second.

In the case of `NC(=O)c1c(F)ccc(OC(CNC(=O)OCc2ccccc2)c2nc(-c3ccc(C(F)(F)F)cc3)c(Br)o2)c1F` (racemic) [Compound 93, benzyl [2-{5-bromo-4-[4-(trifluoromethyl)phenyl]-1,3-oxazol-2-yl}-2-(3-carbamoyl-2,4-difluorophenoxy)ethyl]carbamate], the MIC is reported as 1 to 4 µg/mL (≈ 1.56 to 6.25 µM).

Source: US20170305943A1, “COMPOUNDS FOR THE TREATMENT OF BACTERIAL INFECTIONS” (priority 2014, published 2017)
